Test results from PubChem BioAssay AID1963844 (Molecular Pharmacology Branch, DTP, NCI, 2024).

System: 422866-222-R5-J1-PDC complex spheroid viability
Assay: Anticancer human tumor 422866-222-R5-J1-PDC patient-derived pancreatic adenocarcinoma cell line growth inhibition [POLQ]
Settings: for IC50: curve of first compound; for viability, T/C: stronger effect = lower value
In short: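 PDC + HUVEC + MSC complex spheroids; POLQ inhibitors ± partner drugs; top conc. at/near clinical Cmax, else 10 microM (SN-38 1 microM), half-log dilutions; 37 degrees C, 5% CO2.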
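Note: spheroids exposed to compounds for one week before readout.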
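Throughout, for viability, T/C: percent of DMSO vehicle wells luminescence so 100% = untreated viability.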

## COc1cc2cc(C(=O)CCC(=O)O)sc2cc1OC + Nc1ccc(C#CCN(C(=O)Cc2ncc(C(F)(F)F)cc2C(F)(F)F)c2ccc(F)cc2)nn1
Second compound 0.0316 µM
  IC50: > 10 µM
Second compound 0.1 µM
  IC50: > 10 µM
Second compound 0.316 µM
  IC50: > 10 µM
Second compound 1 µM
  IC50: > 10 µM
Second compound 3.16 µM
  IC50: > 10 µM
Second compound 10 µM
  IC50: > 10 µM
Second compound 0.0316 µM, first compound 0.0316 µM
  viability, T/C: 84%
Second compound 0.0316 µM, first compound 0.1 µM
  viability, T/C: 97.2%
Second compound 0.0316 µM, first compound 0.316 µM
  viability, T/C: 94.5%
Second compound 0.0316 µM, first compound 1 µM
  viability, T/C: 115%
Second compound 0.0316 µM, first compound 3.16 µM
  viability, T/C: 81.2%
Second compound 0.0316 µM, first compound 10 µM
  viability, T/C: 89.1%
Second compound 0.1 µM, first compound 0.0316 µM
  viability, T/C: 87.3%
Second compound 0.1 µM, first compound 0.1 µM
  viability, T/C: 89.9%
Second compound 0.1 µM, first compound 0.316 µM
  viability, T/C: 87.5%
Second compound 0.1 µM, first compound 1 µM
  viability, T/C: 95.3%
Second compound 0.1 µM, first compound 3.16 µM
  viability, T/C: 84%
Second compound 0.1 µM, first compound 10 µM
  viability, T/C: 103%
Second compound 0.316 µM, first compound 0.0316 µM
  viability, T/C: 112%
Second compound 0.316 µM, first compound 0.1 µM
  viability, T/C: 104%
Second compound 0.316 µM, first compound 0.316 µM
  viability, T/C: 86.4%
Second compound 0.316 µM, first compound 1 µM
  viability, T/C: 90.8%
Second compound 0.316 µM, first compound 3.16 µM
  viability, T/C: 86.2%
Second compound 0.316 µM, first compound 10 µM
  viability, T/C: 109%
Second compound 1 µM, first compound 0.0316 µM
  viability, T/C: 99.6%
Second compound 1 µM, first compound 0.1 µM
  viability, T/C: 87.1%
Second compound 1 µM, first compound 0.316 µM
  viability, T/C: 86.9%
Second compound 1 µM, first compound 1 µM
  viability, T/C: 84.5%
Second compound 1 µM, first compound 3.16 µM
  viability, T/C: 94.2%
Second compound 1 µM, first compound 10 µM
  viability, T/C: 136%
Second compound 3.16 µM, first compound 0.0316 µM
  viability, T/C: 108%
Second compound 3.16 µM, first compound 0.1 µM
  viability, T/C: 98.6%
Second compound 3.16 µM, first compound 0.316 µM
  viability, T/C: 95%
Second compound 3.16 µM, first compound 1 µM
  viability, T/C: 94.9%
Second compound 3.16 µM, first compound 3.16 µM
  viability, T/C: 92.2%
Second compound 3.16 µM, first compound 10 µM
  viability, T/C: 111%
Second compound 10 µM, first compound 0.0316 µM
  viability, T/C: 98%
Second compound 10 µM, first compound 0.1 µM
  viability, T/C: 91.4%
Second compound 10 µM, first compound 0.316 µM
  viability, T/C: 93.5%
Second compound 10 µM, first compound 1 µM
  viability, T/C: 89.9%
Second compound 10 µM, first compound 3.16 µM
  viability, T/C: 100%
Second compound 10 µM, first compound 10 µM
  viability, T/C: 104%
